Experimental data reported in PMC8222176 (Acta biomaterialia, 2021).
pKd: −log10 of the molar value.

What was measured:
MelBSt [1] = target: T1, MelBSt (Salmonella typhimurium, UniProt P30878); type: biochemical; conditions: MelBSt extracted with 1.0 wt% detergent
[2] = Hydrodynamic diameter of detergent self-assemblies by dynamic light scattering; type: physicochemical; conditions: 1.0 wt% detergent, water, room temperature, n = 4
MelBSt [3] = target: T1, MelBSt; conditions: 1.5 wt% detergent, further 90 min at 55 °C
[4] = type: physicochemical; conditions: in water at room temperature; DPH dye
μ-opioid receptor (MOR) = μ-opioid receptor (MOR) (Mus musculus, UniProt P42866); assay: MOR stability assay; type: biochemical; conditions: 0.1 wt% detergent, 3-day incubation at room temperature
LeuT = LeuT stability assay; type: biochemical, Aquifex aeolicus; conditions: detergent at CMC + 0.04 wt%, 13-day incubation, room temperature
MelBEc [5] = target: T2, MelBEc (Escherichia coli, UniProt P02921); assay: MelB Trp→D2G FRET assay; type: biochemical, E. coli; conditions: MelBEc extracted with 1.0 wt% detergent
[6] = Water-solubility of detergents; type: physicochemical; conditions: in water
MelBSt [7] = target: T1, MelBSt; conditions: read-out: Apparent Kd, in the presence of Na+; cited from earlier work
MelBEc [8] = target: T2, MelBEc; conditions: read-out: Apparent Kd, in the presence of Na+; cited from earlier work

T2 sequence (P02921 whole entry): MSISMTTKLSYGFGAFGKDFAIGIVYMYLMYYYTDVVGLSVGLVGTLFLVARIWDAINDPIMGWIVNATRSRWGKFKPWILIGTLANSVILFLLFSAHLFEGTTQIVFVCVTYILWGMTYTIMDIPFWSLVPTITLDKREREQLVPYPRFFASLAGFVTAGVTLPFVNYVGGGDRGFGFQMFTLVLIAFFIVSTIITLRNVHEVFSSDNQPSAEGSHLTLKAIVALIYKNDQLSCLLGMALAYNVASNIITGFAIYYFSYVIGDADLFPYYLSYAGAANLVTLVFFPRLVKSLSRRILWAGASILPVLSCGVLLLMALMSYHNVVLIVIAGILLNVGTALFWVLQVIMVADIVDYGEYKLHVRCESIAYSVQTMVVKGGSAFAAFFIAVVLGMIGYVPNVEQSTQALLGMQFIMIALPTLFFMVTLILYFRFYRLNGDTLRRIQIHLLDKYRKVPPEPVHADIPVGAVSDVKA
T1 sequence (P30878 whole entry): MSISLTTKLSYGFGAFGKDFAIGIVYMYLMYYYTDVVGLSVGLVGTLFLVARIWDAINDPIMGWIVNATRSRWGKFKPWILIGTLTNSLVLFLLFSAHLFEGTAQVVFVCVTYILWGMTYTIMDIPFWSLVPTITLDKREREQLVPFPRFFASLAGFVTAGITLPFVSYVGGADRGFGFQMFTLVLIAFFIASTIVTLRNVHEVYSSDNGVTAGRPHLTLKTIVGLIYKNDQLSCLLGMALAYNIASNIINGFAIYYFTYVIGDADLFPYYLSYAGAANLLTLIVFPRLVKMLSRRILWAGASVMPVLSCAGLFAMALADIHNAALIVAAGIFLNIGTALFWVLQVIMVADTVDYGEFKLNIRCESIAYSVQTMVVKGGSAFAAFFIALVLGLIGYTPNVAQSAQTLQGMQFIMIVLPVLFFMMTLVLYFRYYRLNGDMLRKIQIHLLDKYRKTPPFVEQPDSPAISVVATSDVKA
Chain of μ-opioid receptor (MOR) (P42866 whole entry): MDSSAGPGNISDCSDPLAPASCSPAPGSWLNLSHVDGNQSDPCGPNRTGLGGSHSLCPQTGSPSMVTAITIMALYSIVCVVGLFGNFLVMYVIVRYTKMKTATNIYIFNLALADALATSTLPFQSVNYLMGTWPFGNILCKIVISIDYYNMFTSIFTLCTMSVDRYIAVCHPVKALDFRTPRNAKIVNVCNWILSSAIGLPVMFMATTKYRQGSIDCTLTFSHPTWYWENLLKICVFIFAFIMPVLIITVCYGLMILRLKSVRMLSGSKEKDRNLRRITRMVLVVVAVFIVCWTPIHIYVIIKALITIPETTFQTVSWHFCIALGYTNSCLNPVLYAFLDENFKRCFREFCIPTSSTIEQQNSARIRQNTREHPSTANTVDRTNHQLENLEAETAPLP

Compound: CCCCCCCCCCCCO[C@@H]1O[C@H](CO)[C@@H](O[C@H]2O[C@H](CO)[C@@H](O)[C@H](O)[C@H]2O)[C@H](O)[C@H]1O [DDM, n-dodecyl-β-D-maltoside]
- fluorescence response to D2G and melibiose (MelB function) (MelBSt [1]): responsive to the successive addition of D^2G and melibiose
- Dh (hydrodynamic diameter of aggregates) [2]: 6.8 ± 0.6 nm
- soluble MelBSt after incubation (MelBSt [3]): little DDM-solubilized MelBSt detectable
- CAC (critical aggregation concentration) [4]: 170 µM
- MOR long-term stability ([3H]-DPN binding ability) (μ-opioid receptor (MOR)): complete loss in ligand binding ability after a 1-day incubation
- LeuT long-term stability ([3H]-Leu binding ability) (LeuT): steady decrease in the substrate binding ability over time
- fluorescence response to D2G and melibiose (MelB function) (MelBEc [5]): no response was observed
- Solubility (water-solubility) [6]: ~10 wt%

Compound: CN(C)c1cccc2c(S(=O)(=O)NCCS[C@@H]3O[C@H](CO)[C@H](O)[C@H](O)[C@H]3O)cccc12 [D^2G, 2′-(N-Dansyl)aminoalkyl-1-thio-β-D-galactopyranoside]
- pKd (MelBSt [7]): 4.99
- pKd (MelBEc [8]): 5.51

Compound: OC[C@H]1O[C@H](OCC2O[C@@H](O)[C@H](O)[C@@H](O)[C@@H]2O)[C@H](O)[C@@H](O)[C@H]1O (stereo partly drawn) [melibiose]
- pKd (MelBSt [7]): 2.97
- pKd (MelBEc [8]): 3.31
